Assay results: ChEMBL document CHEMBL1125151, “Aldosterone antagonists. 3. Synthesis and activities of steroidal 7 alpha-(alkoxycarbonyl)-15,16-methylene spirolactones” (1990)

What was measured:
[1] = target: T1, Androgen receptor (Rattus norvegicus) (UniProt P15207); test: Binding to rat prostate Androgen receptor compared to dihydrotestosterone; details: Prostate gland
T1 sequence (whole entry): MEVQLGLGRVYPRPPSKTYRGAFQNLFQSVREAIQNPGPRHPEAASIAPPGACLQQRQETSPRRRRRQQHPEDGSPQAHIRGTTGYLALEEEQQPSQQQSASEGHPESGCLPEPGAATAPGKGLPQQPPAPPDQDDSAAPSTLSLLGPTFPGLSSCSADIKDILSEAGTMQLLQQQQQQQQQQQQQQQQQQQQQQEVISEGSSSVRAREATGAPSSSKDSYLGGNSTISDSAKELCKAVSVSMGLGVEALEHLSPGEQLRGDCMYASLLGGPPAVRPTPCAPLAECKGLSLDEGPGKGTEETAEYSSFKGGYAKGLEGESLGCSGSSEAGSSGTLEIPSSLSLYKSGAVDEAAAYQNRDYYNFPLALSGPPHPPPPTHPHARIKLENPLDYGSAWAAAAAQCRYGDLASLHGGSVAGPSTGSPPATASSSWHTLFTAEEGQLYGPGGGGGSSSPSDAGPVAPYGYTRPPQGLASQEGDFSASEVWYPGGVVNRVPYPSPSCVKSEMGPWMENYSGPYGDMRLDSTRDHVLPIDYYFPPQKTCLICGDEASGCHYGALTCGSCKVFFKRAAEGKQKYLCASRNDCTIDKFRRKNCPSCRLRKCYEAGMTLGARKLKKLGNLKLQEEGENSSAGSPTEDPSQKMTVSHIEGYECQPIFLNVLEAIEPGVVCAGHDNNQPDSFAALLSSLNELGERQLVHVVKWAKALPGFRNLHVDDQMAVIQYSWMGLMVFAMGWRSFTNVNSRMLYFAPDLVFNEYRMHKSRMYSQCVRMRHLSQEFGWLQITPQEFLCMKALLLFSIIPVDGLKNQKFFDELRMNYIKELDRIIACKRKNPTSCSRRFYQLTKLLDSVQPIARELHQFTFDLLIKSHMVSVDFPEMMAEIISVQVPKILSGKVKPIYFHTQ

[2] = target: T2, Mineralocorticoid receptor (Rattus norvegicus) (UniProt P22199); test: Anti-aldosterone effect on the urinary Na/K ratio in Wistar rats compared to spironolactone; assay type: functional; details: Urine
T2 sequence (whole entry): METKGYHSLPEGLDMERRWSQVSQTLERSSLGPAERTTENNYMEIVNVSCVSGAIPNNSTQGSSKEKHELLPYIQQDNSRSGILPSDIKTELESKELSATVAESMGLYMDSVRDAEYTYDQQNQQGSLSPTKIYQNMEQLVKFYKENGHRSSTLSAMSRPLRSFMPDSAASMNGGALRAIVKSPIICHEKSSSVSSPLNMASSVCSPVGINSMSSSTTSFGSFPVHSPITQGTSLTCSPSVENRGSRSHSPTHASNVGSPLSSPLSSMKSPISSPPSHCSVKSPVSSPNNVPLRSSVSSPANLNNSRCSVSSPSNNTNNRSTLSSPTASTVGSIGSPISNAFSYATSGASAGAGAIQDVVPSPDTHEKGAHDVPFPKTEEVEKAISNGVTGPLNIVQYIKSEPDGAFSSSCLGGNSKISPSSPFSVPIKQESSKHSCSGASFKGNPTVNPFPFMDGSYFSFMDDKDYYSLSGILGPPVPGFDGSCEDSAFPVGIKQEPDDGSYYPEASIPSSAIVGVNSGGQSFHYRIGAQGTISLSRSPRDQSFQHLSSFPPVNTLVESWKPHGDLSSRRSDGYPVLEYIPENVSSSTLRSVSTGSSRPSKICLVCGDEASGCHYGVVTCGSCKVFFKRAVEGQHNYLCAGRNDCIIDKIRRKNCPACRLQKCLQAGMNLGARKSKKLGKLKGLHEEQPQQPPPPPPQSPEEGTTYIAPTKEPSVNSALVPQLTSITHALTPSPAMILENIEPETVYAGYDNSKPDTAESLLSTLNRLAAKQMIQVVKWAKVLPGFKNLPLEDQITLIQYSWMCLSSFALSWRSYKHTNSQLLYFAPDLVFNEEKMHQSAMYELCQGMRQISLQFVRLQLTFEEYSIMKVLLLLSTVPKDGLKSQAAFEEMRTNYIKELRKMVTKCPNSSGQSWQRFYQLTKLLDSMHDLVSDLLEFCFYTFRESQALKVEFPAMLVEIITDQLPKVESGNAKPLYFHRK

[3] = target: T3, Progesterone receptor (Oryctolagus cuniculus) (UniProt P06186); test: Binding to rabbit uterine progesterone receptor compared to progesterone
T3 sequence (whole entry): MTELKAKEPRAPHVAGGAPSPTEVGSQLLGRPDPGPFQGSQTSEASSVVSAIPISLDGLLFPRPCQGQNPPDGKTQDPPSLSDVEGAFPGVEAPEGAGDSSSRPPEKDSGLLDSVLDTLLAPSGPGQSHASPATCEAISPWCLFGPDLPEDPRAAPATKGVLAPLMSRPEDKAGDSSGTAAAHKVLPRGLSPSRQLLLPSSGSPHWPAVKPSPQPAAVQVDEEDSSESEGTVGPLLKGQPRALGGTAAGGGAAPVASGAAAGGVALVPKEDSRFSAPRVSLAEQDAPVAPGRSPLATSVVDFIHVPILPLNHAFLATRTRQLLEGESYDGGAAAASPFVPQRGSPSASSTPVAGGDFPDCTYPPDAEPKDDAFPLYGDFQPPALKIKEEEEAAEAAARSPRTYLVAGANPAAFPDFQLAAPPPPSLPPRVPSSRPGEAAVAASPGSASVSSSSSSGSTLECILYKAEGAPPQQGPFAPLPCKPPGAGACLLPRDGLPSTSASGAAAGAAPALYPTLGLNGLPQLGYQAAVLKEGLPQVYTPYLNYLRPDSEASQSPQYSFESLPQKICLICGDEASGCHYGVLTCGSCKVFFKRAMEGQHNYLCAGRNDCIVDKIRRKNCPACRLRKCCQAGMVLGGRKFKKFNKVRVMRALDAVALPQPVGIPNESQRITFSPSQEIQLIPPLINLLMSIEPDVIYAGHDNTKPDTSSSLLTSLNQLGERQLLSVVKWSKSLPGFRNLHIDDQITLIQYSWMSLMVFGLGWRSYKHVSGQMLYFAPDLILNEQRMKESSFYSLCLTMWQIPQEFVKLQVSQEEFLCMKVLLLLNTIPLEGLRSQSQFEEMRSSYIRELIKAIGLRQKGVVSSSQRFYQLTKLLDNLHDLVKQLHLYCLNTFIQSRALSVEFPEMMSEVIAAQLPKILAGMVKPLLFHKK

[4] = target: T1, Androgen receptor (Rattus norvegicus); details: Seminal vesicle
Description: Weight of seminal vesicle as anti-androgenic activity in rat after oral dose of 48+0.1 mg/day with testosterone propionate(0.1 mg/day)

Rattus norvegicus [5] = test: Ovulation inhibitory activity in rats after 100 mg oral dose; assay type: functional
[6] = target: T3, Progesterone receptor (Oryctolagus cuniculus); test: Progestational activity on oral administration (30 mg) in rabbit; assay type: functional, organism-based
[7] = target: T1, Androgen receptor (Rattus norvegicus); test: Weight of prostate as anti-androgenic activity in rat after oral dose of 12+0.1 mg/day with testosterone propionate(0.1 mg/day); assay type: functional; details: Prostate gland
[8] = target: T1, Androgen receptor (Rattus norvegicus); test: Weight of seminal vesicle as anti-androgenic activity in rat after oral dose of 24+0.1 mg/day with testosterone propionate(0.1 mg/day); assay type: functional
[9] = target: T3, Progesterone receptor (Oryctolagus cuniculus); test: Progestational activity on oral administration (300 mg) in rabbit; assay type: functional, organism-based
[10] = target: T1, Androgen receptor (Rattus norvegicus); test: Weight of seminal vesicle as anti-androgenic activity in rat after oral dose of 12+0.1 mg/day with testosterone propionate(0.1 mg/day); assay type: functional
[11] = target: T1, Androgen receptor (Rattus norvegicus); details: Prostate gland
Description: Weight of prostate as anti-androgenic activity in rat after oral dose of 48+0.1 mg/day with testosterone propionate(0.1 mg/day)

Rattus norvegicus [12] = test: Ovulation inhibitory activity in rats after 30 mg oral dose; assay type: functional
[13] = target: T3, Progesterone receptor (Oryctolagus cuniculus); test: Progestational activity on oral administration (100 mg) in rabbit; assay type: functional, organism-based
[14] = target: T1, Androgen receptor (Rattus norvegicus); details: Seminal vesicle; remark: listed apart in the source
Description: Weight of seminal vesicle as anti-androgenic activity in rat after oral dose of 96+0.1 mg/day with testosterone propionate(0.1 mg/day)

[15] = target: T1, Androgen receptor (Rattus norvegicus); test: Weight of prostate as anti-androgenic activity in rat after oral dose of 24+0.1 mg/day with testosterone propionate(0.1 mg/day); assay type: functional; details: Prostate gland
[16] = target: T1, Androgen receptor (Rattus norvegicus); details: Prostate gland; remark: listed apart in the source
Description: Weight of prostate as anti-androgenic activity in rat after oral dose of 96+0.1 mg/day with testosterone propionate(0.1 mg/day)

[17] = target: T1, Androgen receptor (Rattus norvegicus); test: Anogenital distance in rats after 50 mg/animal oral dose in Fetal Feminization test (control = 2.30+/-0.16); assay type: functional

SMILES | Competition factor [1] | Relative potency [2] | Competition factor [3] | other results
COC(=O)[C@@H]1CC2=CC(=O)CCC2(C)C2CCC3(C)C(C21)[C@H]1C[C@H]1C31CCC(=O)O1 (stereo partly specified) | 121 | 50 | 10 | 
CCOC(=O)[C@@H]1CC2=CC(=O)CCC2(C)C2CCC3(C)C(C21)[C@@H]1C[C@@H]1C31CCC(=O)O1 (stereo partly specified) | 98 | < 50 | 33 | 
CCCOC(=O)[C@@H]1CC2=CC(=O)[C@@H]3C[C@@H]3C2(C)C2CCC3(C)C(C21)[C@@H]1C[C@@H]1C31CCC(=O)O1 (stereo partly specified) | 33 | 39 | 19 | 
CC(C)OC(=O)[C@@H]1CC2=CC(=O)[C@@H]3C[C@@H]3C2(C)C2CCC3(C)C(C21)[C@@H]1C[C@@H]1C31CCC(=O)O1 (stereo partly specified) | 40 | 140 | 19 | 
COC(=O)[C@@H]1CC2=CC(=O)C=CC2(C)C2CCC3(C)C(C21)[C@@H]1C[C@@H]1C31CCC(=O)O1 (stereo partly specified) |  | < 50 |  | 
CC(C)OC(=O)[C@@H]1CC2=CC(=O)C=CC2(C)C2CCC3(C)C(C21)[C@@H]1C[C@@H]1C31CCC(=O)O1 (stereo partly specified) | 266 | < 50 | 113 | 
CC(C)OC(=O)[C@@H]1CC2=CC(=O)CCC2(C)C2CCC3(C)C(C21)[C@@H]1C[C@@H]1C31CCC(=O)O1 (stereo partly specified) | 67 | < 50 | 12 | 
COC(=O)[C@@H]1CC2=CC(=O)CCC2(C)C2CCC3(C)C(CCC34CCC(=O)O4)C21 (stereo partly specified) | 142 | 104 | 130 | 
CCOC(=O)[C@@H]1CC2=CC(=O)C=CC2(C)C2CCC3(C)C(C21)[C@@H]1C[C@@H]1C31CCC(=O)O1 (stereo partly specified) |  | < 50 | 85 | 
COC(=O)[C@@H]1CC2=CC(=O)CCC2(C)C2CCC3(C)C(C21)[C@@H]1C[C@@H]1C31CCC(=O)O1 (stereo partly specified) | 112 | 217 | 25 | Organ weight [4]: 47 mg; Inhibition (Rattus norvegicus [5]): 0%; McPhail index [6]: 1.4; Organ weight [7]: 38 mg; Organ weight [8]: 37 mg; McPhail index [9]: 1.8; Organ weight [10]: 44 mg; Organ weight [11]: 41 mg; Inhibition (Rattus norvegicus [12]): 0%; McPhail index [13]: 1.8; Organ weight [14]: 42 mg; Organ weight [15]: 33 mg; Organ weight [16]: 30 mg; Anogenital distance [17]: 2 mm
CCOC(=O)[C@@H]1CC2=CC(=O)[C@@H]3C[C@@H]3C2(C)C2CCC3(C)C(C21)[C@@H]1C[C@@H]1C31CCC(=O)O1 (stereo partly specified) | 28 | 187 | 34 | 
CC(=O)S[C@@H]1CC2=CC(=O)CC[C@]2(C)[C@H]2CC[C@@]3(C)[C@@H](CC[C@@]34CCC(=O)O4)[C@H]12 [SPIRONOLACTONE] |  |  |  | Inhibition (Rattus norvegicus [5]): 100%
COC(=O)[C@@H]1CC2=CC(=O)[C@@H]3C[C@@H]3C2(C)C2CCC3(C)C(C21)[C@H]1C[C@H]1C31CCC(=O)O1 (stereo partly specified) | 53 | 140 | 98 | 
COC(=O)[C@@H]1CC2=CC(=O)[C@@H]3C[C@@H]3C2(C)C2CCC3(C)C(C21)[C@@H]1C[C@@H]1C31CCC(=O)O1 (stereo partly specified) | 29 | 140 | 92 | 
